Data as given in article PMC4460250, “Systems Pharmacology Dissecting Holistic Medicine for Treatment of Complex Diseases: An Example Using Cardiocerebrovascular Diseases Treated by TCM” (Evidence-based Complementary and Alternative Medicine : eCAM, 2015).

Assays:
[1] = in vivo
[2] = in vivo; cited from earlier work

Compound | Class(High: HIA value ≥0.7; Low: HIA value < 0.7) [1] | HIA(Human Intestinal Absorption) [2]
CN1C(=O)NC(=O)C(C)(C2=CCCCC2)C1=O (stereo not shown) [Hexobarbital] | High (key: High: HIA value ≥0.7; Low: HIA value < 0.7) | 0.95
CC(C)(C)NC[C@H](O)c1cc(O)cc(O)c1 [Terbutaline(R)] | Low (key: High: HIA value ≥0.7; Low: HIA value < 0.7) | 0.63
N=C(N)NC[C@@H]1COC2(CCCCC2)O1 [Guanadrel(R)] | High (key: High: HIA value ≥0.7; Low: HIA value < 0.7) | 0.8
CN1CCC[C@H]1c1cccnc1 [Nicotine(S)] | High (key: High: HIA value ≥0.7; Low: HIA value < 0.7) | 1
CCN(CC)[C@H](C)C(=O)c1ccccc1 [Diethylpropion(R)] | High (key: High: HIA value ≥0.7; Low: HIA value < 0.7) | 0.95
Cc1nccn1C[C@@H]1CCc2c(c3ccccc3n2C)C1=O [Ondansetron(S)] | High (key: High: HIA value ≥0.7; Low: HIA value < 0.7) | 1
COc1ccc([C@@H](CN(C)C)C2(O)CCCCC2)cc1 [Venlafaxine(S)] | High (key: High: HIA value ≥0.7; Low: HIA value < 0.7) | 0.95
NS(=O)(=O)c1cc2c(cc1Cl)N[C@@H](CC1CCCC1)NS2(=O)=O [Cyclopenthiazide(R)] | High (key: High: HIA value ≥0.7; Low: HIA value < 0.7) | 1
CCOC(=O)[C@H](CCc1ccccc1)N[C@@H](C)C(=O)N1[C@H](C(=O)O)C[C@@H]2CCC[C@@H]21 [Ramipril] | Low (key: High: HIA value ≥0.7; Low: HIA value < 0.7) | 0.6
CCCCCc1cc(O)c2c(c1)OC(C)(C)[C@@H]1CCC(C)=C[C@@H]21 [Tetrahydrocannabinol] | High (key: High: HIA value ≥0.7; Low: HIA value < 0.7) | 0.93
CC[C@@]1(c2cccc(O)c2)CCCCN(C)C1 [Meptazinol(S)] | High (key: High: HIA value ≥0.7; Low: HIA value < 0.7) | 1
C[C@H](CN1c2ccccc2Sc2ccccc21)N(C)C [Promethazine(R)] | High (key: High: HIA value ≥0.7; Low: HIA value < 0.7) | 0.95
CCN(CC)CC[C@@]1(c2ccccc2)CCC(=O)NC1=O [Phenglutarimide(R)] | High (key: High: HIA value ≥0.7; Low: HIA value < 0.7) | 1
CC(C)(C)c1ccc([C@@H](O)CCCN2CCC(C(O)(c3ccccc3)c3ccccc3)CC2)cc1 [Terfenadine(S)] | High (key: High: HIA value ≥0.7; Low: HIA value < 0.7) | 1
Cc1ncsc1CCCl [Clomethiazole] | High (key: High: HIA value ≥0.7; Low: HIA value < 0.7) | 0.95
CCN1CCCC1CNC(=O)c1c(OC)ccc(Br)c1OC (stereo in doubt) [Remoxipride(R)] | High (key: High: HIA value ≥0.7; Low: HIA value < 0.7) | 1
N=C(N)NC[C@H]1COc2ccccc2O1 [Guanoxan(S)] | Low (key: High: HIA value ≥0.7; Low: HIA value < 0.7) | 0.5
NS(=O)(=O)c1cc2c(cc1Cl)N[C@H](CC1CCCC1)NS2(=O)=O [Cyclopenthiazide(S)] | High (key: High: HIA value ≥0.7; Low: HIA value < 0.7) | 1

Compound | Class(High: HIA value ≥0.7; Low: HIA value < 0.7) [1] | HIA(Human Intestinal Absorption) [2]
Cc1ncc2n1-c1ccc(Cl)cc1C(c1ccccc1F)=NC2 [Midazolam] | High (key: High: HIA value ≥0.7; Low: HIA value < 0.7) | 1
CC(C)(Oc1ccc([C@H]2CC2(Cl)Cl)cc1)C(=O)O [Ciprofibrate(R)] | High (key: High: HIA value ≥0.7; Low: HIA value < 0.7) | 0.99
COc1c(N2CCN[C@@H](C)C2)c(F)cc2c(=O)c(C(=O)O)cn(C3CC3)c12 [Gatifloxacin(S)] | High (key: High: HIA value ≥0.7; Low: HIA value < 0.7) | 0.96
C=CCc1ccccc1OC[C@H](O)CNC(C)C [Alprenolol(R)] | High (key: High: HIA value ≥0.7; Low: HIA value < 0.7) | 0.93
CCC[C@H](C)C1(CC)C(=O)NC(=O)NC1=O [Pentobarbital(S)] | High (key: High: HIA value ≥0.7; Low: HIA value < 0.7) | 1
Clc1ccc(CO[C@@H](Cn2ccnc2)c2ccc(Cl)cc2Cl)c(Cl)c1 [Miconazole(R)] | High (key: High: HIA value ≥0.7; Low: HIA value < 0.7) | 0.99
CC[C@H](C(=O)O)c1ccc(N2Cc3ccccc3C2=O)cc1 [Indobufen(S)] | High (key: High: HIA value ≥0.7; Low: HIA value < 0.7) | 1
CC(C)(C)NC[C@H](O)COc1ccccc1C1CCCC1 [Penbutolol(S)] | High (key: High: HIA value ≥0.7; Low: HIA value < 0.7) | 1
COc1ccccc1OCCNC[C@H](O)c1ccc(C)c(S(N)(=O)=O)c1 [Amosulalol(R)] | High (key: High: HIA value ≥0.7; Low: HIA value < 0.7) | 1
Cc1nccn1C[C@H]1CCc2c(c3ccccc3n2C)C1=O [Ondansetron(R)] | High (key: High: HIA value ≥0.7; Low: HIA value < 0.7) | 1
CCCC[C@@H]1C(=O)N(c2ccccc2)N(c2ccc(O)cc2)C1=O [Oxyphenbutazone(R)] | High (key: High: HIA value ≥0.7; Low: HIA value < 0.7) | 1
COc1cc2nc(N3CCN(C(=O)[C@H]4CCCO4)CC3)nc(N)c2cc1OC [Terazosin(R)] | High (key: High: HIA value ≥0.7; Low: HIA value < 0.7) | 0.91
CCN1CCC[C@H]1CNC(=O)c1c(OC)ccc(Br)c1OC [Remoxipride(S)] | High (key: High: HIA value ≥0.7; Low: HIA value < 0.7) | 1
CCCCC(=O)N(Cc1ccc(-c2ccccc2-c2nnn[nH]2)cc1)[C@H](C(=O)O)C(C)C [Valsartan(S)] | Low (key: High: HIA value ≥0.7; Low: HIA value < 0.7) | 0.55
COc1ccc([C@H](CN(C)C)C2(O)CCCCC2)cc1 [Venlafaxine(R)] | High (key: High: HIA value ≥0.7; Low: HIA value < 0.7) | 0.95
CCC1(CCC(C)C)C(=O)NC(=O)NC1=O [Amobarbital] | High (key: High: HIA value ≥0.7; Low: HIA value < 0.7) | 0.95
CCn1cc(C(=O)O)c(=O)c2cc(F)c(N3CCN[C@H](C)C3)c(F)c21 [Lomefloxacin(R)] | High (key: High: HIA value ≥0.7; Low: HIA value < 0.7) | 0.99
